Results as given in patent US9499538B2, “Estrogen receptor modulators and uses thereof” (Seragon Pharmaceuticals, Inc., priority 2012, dated 2016).

Legend:
[1] = tested on: MCF-7 cells; test: Breast Cancer Cell Viability Assays (MCF-7, CellTiter-Glo); format: cell-based; settings: 5 days' compound exposure; for IC50: Homo sapiens, MCF7, 120 h
Outline: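 MCF-7 cells (320/well, RPMI with 10% FBS) exposed for 5 days to an eleven-point semilog series, 0.3–0.000003 μM final. Viability read by CellTiter-Glo luminescence, expressed as background-corrected percent of untreated cells.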

[2] = molecular target: T1, ER-α in MCF-7 cells (Homo sapiens, UniProt P03372); test: Breast Cancer Cell ER-α In Cell Western Assay (SP1); format: cell-based; settings: 4 or 24 hr post compound addition; for Emax: MCF7, SP1 antibody, read-out: ER-α In Cell Western Assay (SP1) Max Response; for DC50: SP1 antibody, read-out: ER-α In Cell Western Assay (SP1) IC50
T1 construct: endogenous in cells; host or cells: MCF-7
T1 sequence (P03372 1-595): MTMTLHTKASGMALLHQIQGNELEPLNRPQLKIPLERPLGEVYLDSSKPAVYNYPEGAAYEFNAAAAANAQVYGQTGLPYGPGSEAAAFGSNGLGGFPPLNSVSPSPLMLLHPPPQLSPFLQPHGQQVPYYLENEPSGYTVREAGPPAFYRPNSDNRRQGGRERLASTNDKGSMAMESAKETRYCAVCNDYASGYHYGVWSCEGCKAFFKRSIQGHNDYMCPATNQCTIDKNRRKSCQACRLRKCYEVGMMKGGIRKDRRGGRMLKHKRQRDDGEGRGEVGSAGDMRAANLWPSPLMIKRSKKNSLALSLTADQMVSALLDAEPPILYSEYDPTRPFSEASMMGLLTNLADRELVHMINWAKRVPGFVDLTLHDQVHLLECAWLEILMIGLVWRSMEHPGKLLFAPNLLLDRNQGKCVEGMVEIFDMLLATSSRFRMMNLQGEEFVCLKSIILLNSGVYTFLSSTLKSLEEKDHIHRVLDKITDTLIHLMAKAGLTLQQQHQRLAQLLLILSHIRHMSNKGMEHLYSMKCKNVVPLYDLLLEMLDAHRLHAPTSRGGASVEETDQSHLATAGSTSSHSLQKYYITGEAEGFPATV
Outline: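 MCF-7 cells in charcoal-stripped FBS medium, treated with 11-point semilog dilutions (0.3–0.000003 μM final) for 4 or 24 h. Fixed cells immunostained with SP1 antibody (800 nm) and DRAQ5 DNA (700 nm); ER/DNA ratio expressed as % of untreated cells.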

Which “MCF7 Viability Assay Max Response” value [1] does the source give for `Cc1cc(C#N)ccc1/C(=C(\c1ccc(/C=C/C(=O)O)cc1)c1ccc2scnc2c1)C1CCC1` [Example 96, (E)-3-(4-((E)-1-(Benzo[d]thiazol-5-yl)-2-(4-cyano-2-methylphenyl)-2-cyclobutylvinyl)phenyl)acrylic acid] here?
Its value is “++ (++ = a single % value ≧ 40%)”.

What about the IC50 [1] of the same compound?
The IC50 was ≤ 100 nM.

And the Emax [2]?
Its Emax is ≥ 40%.

And the DC50 [2]?
The DC50 was ≤ 100 nM.

What does the source list for `COc1ccc(/C(=C(\c2ccc(/C=C/C(=O)O)cc2)c2ccc3scnc3c2)C2CCC2)c(C#N)c1` [Example 97, (E)-3-(4-((E)-1-(Benzo[d]thiazol-5-yl)-2-(2-cyano-4-methoxyphenyl)-2-cyclobutylvinyl)phenyl)acrylic acid]?
MCF7 Viability Assay Max Response [1]: ++ (++ = a single % value ≧ 40%); IC50 [1]: ≤ 100 nM; Emax [2]: ≥ 40%; DC50 [2]: ≤ 100 nM

Which “MCF7 Viability Assay Max Response” value [1] does the source give for `Cc1cccnc1/C(=C(\c1ccc(/C=C/C(=O)O)cc1)c1ccc2scnc2c1)C1CCC1` [Example 98, (E)-3-(4-((E)-1-(Benzo[d]thiazol-5-yl)-2-cyclobutyl-2-(3-methylpyridin-2-yl)vinyl)phenyl)acrylic acid] here?
The value was “++ (++ = a single % value ≧ 40%)”.

And the IC50 [1]?
The IC50 was ≤ 100 nM.

What about the Emax [2] of the same compound?
The Emax was ≥ 40%.

And the DC50 [2]?
The DC50 was ≤ 100 nM.

How did the “MCF7 Viability Assay Max Response” value [1] turn out when `O=C(O)/C=C/c1ccc(/C(=C(\c2ncccc2F)C2CCC2)c2ccc3scnc3c2)cc1` [Example 99, (E)-3-(4-((E)-1-(Benzo[d]thiazol-5-yl)-2-cyclobutyl-2-(3-fluoropyridin-2-yl)vinyl)phenyl)acrylic acid] was run?
Its value is “++ (++ = a single % value ≧ 40%)”.

And the IC50 [1]?
Its IC50 is ≤ 100 nM.

And the Emax [2]?
The Emax was ≥ 40%.

And the DC50 [2]?
The DC50 was ≤ 100 nM.

How did the “MCF7 Viability Assay Max Response” value [1] turn out when `O=C(O)/C=C/c1ccc(/C(=C(\c2ncccc2Cl)C2CCC2)c2ccc3scnc3c2)cc1` [Example 100, (E)-3-(4-((E)-1-(Benzo[d]thiazol-5-yl)-2-(3-chloropyridin-2-yl)-2-cyclobutylvinyl)phenyl)acrylic acid] was run?
The value was “++ (++ = a single % value ≧ 40%)”.

And the IC50 [1]?
Its IC50 is ≤ 100 nM.

What about the Emax [2] of the same compound?
The Emax was ≥ 40%.

And the DC50 [2]?
Its DC50 is ≤ 100 nM.

Which results are given for `CC/C(=C(/c1ccc(/C=C/C(=O)O)cc1)c1ccc2[nH]nc(F)c2c1)c1ccc(Cl)cc1C#N` [Example 101, (E)-3-(4-((E)-2-(4-Chloro-2-cyanophenyl)-1-(3-fluoro-1H-indazol-5-yl)but-1-en-1-yl)phenyl)acrylic acid]?
MCF7 Viability Assay Max Response [1]: ++ (++ = a single % value ≧ 40%); IC50 [1]: ≤ 100 nM; Emax [2]: ≥ 40%; DC50 [2]: ≤ 100 nM

Which “MCF7 Viability Assay Max Response” value [1] does the source give for `CC/C(=C(/c1ccc(/C=C/C(=O)O)cc1)c1ccc2[nH]nc(F)c2c1)c1ccc(F)cc1C#N` [Example 102, (E)-3-(4-((E)-2-(2-Cyano-4-fluorophenyl)-1-(3-fluoro-1H-indazol-5-yl)but-1-en-1-yl)phenyl)acrylic acid] here?
Its value is “++ (++ = a single % value ≧ 40%)”.

What about the IC50 [1] of the same compound?
Its IC50 is ≤ 100 nM.

What about the Emax [2] of the same compound?
Its Emax is ≥ 40%.

And the DC50 [2]?
The DC50 was ≤ 100 nM.

Which “MCF7 Viability Assay Max Response” value [1] does the source give for `CC/C(=C(/c1ccc(/C=C/C(=O)O)cc1)c1ccc2[nH]nc(F)c2c1)c1ccc(C(F)(F)F)cc1C#N` [Example 103] here?
Its value is “++ (++ = a single % value ≧ 40%)”.

What about the IC50 [1] of the same compound?
Its IC50 is ≤ 100 nM.

And the Emax [2]?
The Emax was ≥ 40%.

What about the DC50 [2] of the same compound?
Its DC50 is ≤ 100 nM.

How did the “MCF7 Viability Assay Max Response” value [1] turn out when `CC/C(=C(/c1ccc(/C=C/C(=O)O)cc1)c1ccc2[nH]nc(F)c2c1)c1ccc(C#N)cc1F` [Example 104, (E)-3-(4-((E)-2-(4-Cyano-2-fluorophenyl)-1-(3-fluoro-1H-indazol-5-yl)but-1-en-1-yl)phenyl)acrylic acid] was run?
The value was “++ (++ = a single % value ≧ 40%)”.

And the IC50 [1]?
The IC50 was ≤ 100 nM.

What about the Emax [2] of the same compound?
The Emax was ≥ 40%.

And the DC50 [2]?
The DC50 was ≤ 100 nM.

Which “MCF7 Viability Assay Max Response” value [1] does the source give for `CC/C(=C(/c1ccc(/C=C/C(=O)O)cc1)c1ccc2[nH]nc(F)c2c1)c1ccc(C#N)cc1C` [Example 105] here?
The value was “++ (++ = a single % value ≧ 40%)”.

And the IC50 [1]?
The IC50 was ≤ 100 nM.

What about the Emax [2] of the same compound?
Its Emax is ≥ 40%.

And the DC50 [2]?
Its DC50 is ≤ 100 nM.
